The IC50 is the concentration needed to halve the response being measured.

The target of the test is human recombinant KAT-II (Homo sapiens (Human), UniProt Q8N5Z0). In words: KAT-II inhibitory test. In kind it is biochemical. The following applies: 3.0 μmol/L kynurenine, 37° C., 1 hr, pH 8.0; kynurenic acid quantified by HPLC. As for the experimental part: The compounds described in the above-mentioned Examples were used for the KAT-II inhibitory test.
Chain of human recombinant KAT-II (Q8N5Z0 30-425): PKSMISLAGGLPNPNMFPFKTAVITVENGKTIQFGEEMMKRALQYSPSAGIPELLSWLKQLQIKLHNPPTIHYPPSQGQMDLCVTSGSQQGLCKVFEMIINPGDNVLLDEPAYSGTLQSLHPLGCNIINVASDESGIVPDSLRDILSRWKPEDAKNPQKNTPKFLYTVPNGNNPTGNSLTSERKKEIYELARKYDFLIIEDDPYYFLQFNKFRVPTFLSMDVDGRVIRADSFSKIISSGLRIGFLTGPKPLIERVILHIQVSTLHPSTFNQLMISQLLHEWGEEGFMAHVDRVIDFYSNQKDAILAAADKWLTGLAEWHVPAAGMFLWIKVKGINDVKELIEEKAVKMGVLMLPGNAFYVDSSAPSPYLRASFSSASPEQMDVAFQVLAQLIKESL
Preparation of Human Recombinant KAT-II
Human recombinant KAT-II was prepared as follows.
His tag and maltose binding protein tag were added to the N-terminal of a gene encoding human KAT-II (Genbank accession number: AF481738.1), and the obtained gene was incorporated into pET32 (Merck Nihon Millipore), which is an Escherichia coli expression vector. Human recombinant KAT-II produced by BL21(DE3) Escherichia coli (Merck Nihon Millipore, 69450) transformed using the plasmid was purified using an amylose resin column (New England Biolabs, #800-21 L).
The inhibitory action of the test compound on human recombinant KAT-II was determined by the following method.
To a reaction mixture (45 μL) containing 3.0 μmol/L kynurenine, 10 μmol/L pyridoxal phosphate, 2.0 ng/μL human recombinant KAT-II, and 150 mmol/L tris(hydroxymethyl)aminomethane-acetate buffer (pH 8.0) was added a 10% dimethyl sulfoxide solution (5 μL) of each test compound prepared, and the mixture was reacted at 37° C. for 1 hr. After the reaction, 50% trichloroacetic acid (5 μL) was added to terminate the reaction.
The resultant kynurenic acid was quantified as follows by high performance liquid chromatography. An enzyme reaction mixture was separated by an octadecylsilane reversed-phase column (SC-50DS, Eicom Corporation; mobile phase: 250 mmol/L zinc acetate, 50 mmol/L sodium acetate, and 5.0% acetonitrile (pH 6.2)) incubated at 30° C., and kynurenic acid was quantified using a fluorescence detector (RF-20Axs, Shimadzu Corporation) at excitation wavelength 354 nm, detection wavelength 460 nm. The analytical curve was drawn every time by an external standard method. Each test compound was tested by dual measurement at each concentration.
In the case of `CC(C)c1cc(=O)n2nc([C@H]3CCCN3C(=O)N3CCc4ccccc43)sc2n1` [Example 170, 2-[(R)-1-(2,3-dihydro-indole-1-carbonyl)pyrrolidin-2-yl]-7-(propan-2-yl)-5H-[1,3,4]thiadiazolo[3,2-a]pyrimidin-5-one], the IC50 was 880 nM.
As to `Cc1nc2sc([C@H]3CCCN3C(=O)N[C@H](C)c3ccccc3)nn2c(=O)c1C` [Example 171, (R)-2-(6,7-dimethyl-5-oxo-5H-[1,3,4]thiadiazolo[3,2-a]pyrimidin-2-yl)-N-((R)-1-phenylethyl)pyrrolidine-1-carboxamide], the half-inhibitory concentration (IC50) came out at 1800 nM.
In the case of `Cc1nc2sc([C@H]3CCCN3C(=O)NC(C)(C)c3ccccc3)nn2c(=O)c1C` [Example 172, (R)-2-(6,7-dimethyl-5-oxo-5H-[1,3,4]thiadiazolo[3,2-a]pyrimidin-2-yl)-N-(1-methyl-1-phenylethyl)pyrrolidine-1-carboxamide], the IC50 was 840 nM.
On to `Cc1nc2sc([C@H]3CCCN3C(=O)Nc3csc4ncccc34)nn2c(=O)c1C` [Example 175, (R)-2-(6,7-dimethyl-5-oxo-5H-[1,3,4]thiadiazolo[3,2-a]pyrimidin-2-yl)-N-(thieno[2,3-b]pyridin-3-yl)-pyrrolidine-1-carboxamide], for which the IC50 was 3700 nM.
With `CCCc1cc(=O)n2nc(N3CCCN3C(=O)Oc3ccccc3)sc2n1` [Example 176, 2-(5-oxo-7-propyl-5H-[1,3,4]thiadiazolo[3,2-a]pyrimidin-2-yl)pyrazolidine-1-carboxylic acid phenyl ester], the 50% inhibitory concentration (IC50) worked out at 520 nM.
On to `CCc1nc2sc(N3CCC[C@@H]3C(=O)NCc3cccc(F)c3)nc2c(=O)n1C` [Example 183, (R)-1-(5-ethyl-6-methyl-7-oxo-6,7-dihydro-[1,3]thiazolo[5,4-d]pyrimidin-2-yl)-N-(3-fluorobenzyl)pyrrolidine-2-carboxamide], for which the concentration for half-maximal inhibition (IC50) was 32 nM.
As to `Cn1c(C(F)(F)F)nc2sc(N3CCC[C@@H]3C(=O)NCc3ccccc3)nc2c1=O` [Example 190, (R)-N-benzyl-1-(6-methyl-7-oxo-5-trifluoromethyl-6,7-dihydro-[1,3]thiazolo[5,4-d]pyrimidin-2-yl)pyrrolidine-2-carboxamide], the IC50 stood at 26 nM.
In the case of `COCCn1c(C(F)F)nc2sc(N3CCC[C@@H]3C(=O)NCc3ccccc3)nc2c1=O` [Example 191, (R)-N-benzyl-1-[5-difluoromethyl-6-(2-methoxy-ethyl)-7-oxo-6,7-dihydro-[1,3]thiazolo[5,4-d]pyrimidin-2-yl]pyrrolidine-2-carboxamide], the IC50 worked out at 31 nM.
Take `Cn1c(-c2ccccn2)nc2sc(N3CCC[C@@H]3C(=O)NCc3ccccc3)nc2c1=O` [Example 194, (R)-N-benzyl-1-[6-methyl-7-oxo-5-(pyridin-2-yl)-6,7-dihydro-[1,3]thiazolo[5,4-d]pyrimidin-2-yl]pyrrolidine-2-carboxamide]: the concentration for half-maximal inhibition (IC50) came to 76 nM.
As for `Cn1c(-c2c(F)cc(F)cc2F)nc2sc(N3CCC[C@@H]3C(=O)NCc3ccccc3)nc2c1=O` [Example 203, (R)-N-benzyl-1-[6-methyl-7-oxo-5-(2,4,6-trifluorophenyl)-6,7-dihydro[1,3]thiazolo[5,4-d]pyrimidin-2-yl]pyrrolidine-2-carboxamide], the IC50 came out at 14 nM.
The result for `Cn1c(-c2c(F)cccc2F)nc2sc(N3CCC[C@@H]3C(=O)NCc3ccccc3)nc2c1=O` [Example 204, (R)-N-benzyl-1-[5-(2,6-difluorophenyl)-6-methyl-7-oxo-6,7-dihydro[1,3]thiazolo[5,4-d]pyrimidin-2-yl]pyrrolidine-2-carboxamide] reads 7 nM; that for `Cc1noc(-c2nc3sc(N4CCC[C@@H]4C(=O)NCc4ccccc4)nc3c(=O)n2C)n1` [Example 211, (R)-N-benzyl-1-[6-methyl-5-(3-methyl-1,2,4-oxadiazol-5-yl)-7-oxo-6,7-dihydro[1,3]thiazolo[5,4-d]pyrimidin-2-yl]pyrrolidine-2-carboxamide], 7.3 nM; that for `Cc1noc(-c2nc3sc(N4CCC[C@@H]4C(=O)NCc4ccc(F)cc4)nc3c(=O)n2C)n1` [Example 213, (R)-N-(4-fluorobenzyl)-1-[6-methyl-5-(3-methyl-[1,2,4]oxadiazol-5-yl)-7-oxo-6,7-dihydro[1,3]thiazolo[5,4-d]pyrimidin-2-yl]pyrrolidine-2-carboxamide], 16 nM.
On to `Cc1noc(-c2nc3sc(N4CCC[C@@H]4C(=O)NCc4ccccc4)nc3c(=O)n2CC(F)F)n1` [Example 221, (R)-N-benzyl-1-[6-(2,2-difluoroethyl)-5-(3-methyl-1,2,4-oxadiazol-5-yl)-7-oxo-6,7-dihydro[1,3]thiazolo[5,4-d]pyrimidin-2-yl]pyrrolidine-2-carboxamide], for which the IC50 is 4.8 nM.
On to `CC1(Cn2c(C(F)(F)F)nc3sc(N4CCC[C@@H]4C(=O)NCc4ccccc4)nc3c2=O)COC1` [Example 227, (R)-N-benzyl-1-{6-[(3-methyloxetan-3-yl)methyl]-7-oxo-5-trifluoromethyl-6,7-dihydro[1,3]thiazolo[5,4-d]pyrimidin-2-yl}pyrrolidine-2-carboxamide], for which the 50% inhibitory concentration (IC50) was 72 nM.
As to `Cc1ccccc1CNC(=O)[C@H]1CCCN1c1nc2c(=O)n(C)c(C)nc2s1` [Example 229, (R)-1-(5,6-dimethyl-7-oxo-6,7-dihydro-[1,3]thiazolo[5,4-d]pyrimidin-2-yl)-N-(2-methylbenzyl)pyrrolidine-2-carboxamide], the IC50 was 21 nM.
Consider `CCc1nc2sc(N3CC[C@@H]3C(=O)NCc3ccccc3)nc2c(=O)n1C` [Example 233, (R)-N-benzyl-1-(5-ethyl-6-methyl-7-oxo-6,7-dihydro-[1,3]thiazolo[5,4-d]pyrimidin-2-yl)azetidine-2-carboxamide], for which the IC50 came out at 120 nM.
Turning to `CCc1nc2sc(N3CCCC[C@@H]3C(=O)NCc3ccccc3)nc2c(=O)n1CC` [Example 236, (R)-N-benzyl-1-(5,6-diethyl-7-oxo-6,7-dihydro-[1,3]thiazolo[5,4-d]pyrimidin-2-yl)piperidine-2-carboxamide], the IC50 was 240 nM.
In the case of `O=C(NCc1ccccc1)[C@H]1CCCN1c1nc2c(=O)n(C3CCCC3)cnc2s1` [Example 238, (R)-N-benzyl-1-(6-cyclopentyl-7-oxo-6,7-dihydro-[1,3]thiazolo[5,4-d]pyrimidin-2-yl)pyrrolidine-2-carboxamide], the IC50 is 16 nM.
The same measure for `O=C(NCc1ccccc1)[C@H]1CCCN1c1nc2c(=O)n(C3CCOCC3)c(C(F)(F)F)nc2s1` [Example 244, (R)-N-benzyl-1-[7-oxo-6-(tetrahydro-2H-pyran-4-yl)-5-trifluoromethyl-6,7-dihydro-[1,3]thiazolo[5,4-d]pyrimidin-2-yl]pyrrolidine-2-carboxamide]: 11 nM; for `O=C(NCc1ccccc1)[C@H]1CCCN1c1nc2c(=O)n(C3COC3)c(C(F)(F)F)nc2s1` [Example 251, (R)-N-benzyl-1-[6-(oxetan-3-yl)-7-oxo-5-trifluoromethyl-6,7-dihydro-[1,3]thiazolo[5,4-d]pyrimidin-2-yl]pyrrolidine-2-carboxamide]: 40 nM; for `O=C(NCc1ccccc1)[C@H]1CCCN1c1nc2c(=O)n(N3CCCC3)c(C(F)(F)F)nc2s1` [Example 252, (R)-N-benzyl-1-[7-oxo-6-(pyrrolidin-1-yl)-5-trifluoromethyl-6,7-dihydro-[1,3]thiazolo[5,4-d]pyrimidin-2-yl]pyrrolidine-2-carboxamide]: 19 nM.
Regarding `O=C(NCc1ccccc1)[C@H]1CCCN1c1nc2c(=O)n(N3CCOCC3)c(C(F)(F)F)nc2s1` [Example 253, (R)-N-benzyl-1-[6-(morpholin-4-yl)-7-oxo-5-trifluoromethyl-6,7-dihydro-[1,3]thiazolo[5,4-d]pyrimidin-2-yl]pyrrolidine-2-carboxamide], the concentration for half-maximal inhibition (IC50) is 89 nM.
`O=C(NCc1ccccc1)[C@H]1CCCN1c1nc2c(=O)n(CC3CCOCC3)c(C(F)F)nc2s1` [Example 254, (R)-N-benzyl-1-{5-difluoromethyl-7-oxo-6-[(tetrahydro-2H-pyran-4-yl)methyl]-6,7-dihydro-[1,3]thiazolo[5,4-d]pyrimidin-2-yl}pyrrolidine-2-carboxamide]: the IC50 amounted to 11 nM.
Consider `COCc1nc2sc(N3CCC[C@@H]3C(=O)NCc3ccccc3)nc2c(=O)n1C1CC1` [Example 258, (R)-N-benzyl-1-[6-cyclopropyl-5-methoxymethyl-7-oxo-6,7-dihydro[1,3]thiazolo[5,4-d]pyrimidin-2-yl]pyrrolidine-2-carboxamide], for which the 50% inhibitory concentration (IC50) turned out to be 180 nM.
In the case of `Cn1c(C2CCOCC2)nc2sc(N3CCC[C@@H]3C(=O)NCc3ccccc3)nc2c1=O` [Example 259, (R)-N-benzyl-1-[6-methyl-7-oxo-5-(tetrahydro-2H-pyran-4-yl)-6,7-dihydro[1,3]thiazolo[5,4-d]pyrimidin-2-yl]pyrrolidine-2-carboxamide], the IC50 turned out to be 4.3 nM.
